Reference: ChEMBL document CHEMBL1201862, “PubChem BioAssay data set” (2004)
The source made the active and inactive calls.

Columns and labels:
[1] = NIH-3T3 fibroblast cytotoxicity, dose response, cytotoxicity control, cell-based, fluorescence, Alamar Blue, secondary assay (AID 2327); format: functional;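 note: NIH-3T3 mouse fibroblasts cultured with fluconazole at 8 µg/mL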
BJ = experiment: BJ-TERT fibroblast viability loss – cell-based, RAS-independent, luminescence, dose response (AID 1933); format: functional; conditions: Homo sapiens
[2] = target: Melanin-concentrating hormone receptor 1 (Homo sapiens, UniProt Q99705); experiment: Fluorescence-based counterscreen for antagonists of the G-protein coupled receptor 7 (GPR7): cell-based high throughput dose response assay to identify antagonists of the melanin-concentrating hormone receptor 1 (MCHR1).; format: functional
Chain of Melanin-concentrating hormone receptor 1 (Q99705 whole entry): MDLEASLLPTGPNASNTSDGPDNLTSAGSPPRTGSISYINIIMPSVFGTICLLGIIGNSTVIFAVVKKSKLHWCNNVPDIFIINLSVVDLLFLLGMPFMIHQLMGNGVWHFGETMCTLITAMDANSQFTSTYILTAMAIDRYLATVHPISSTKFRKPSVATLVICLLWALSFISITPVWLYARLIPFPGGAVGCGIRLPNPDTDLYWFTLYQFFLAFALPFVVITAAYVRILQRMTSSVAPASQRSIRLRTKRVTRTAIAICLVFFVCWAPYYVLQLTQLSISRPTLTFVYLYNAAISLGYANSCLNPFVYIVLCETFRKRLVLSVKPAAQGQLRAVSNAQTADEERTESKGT

Melanocortin receptor 4 = Melanocortin receptor 4 (Homo sapiens, UniProt P32245); format: functional, cell-based;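 note: Cell-based assay with luminescence read-out, confirmatory dose-response testing for agonist activity of biased ligands at MC4R; human U2OS cells with tagged receptor and beta-arrestin; potency of agonists that increase receptor coupling to beta-arrestin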
Chain of Melanocortin receptor 4 (P32245 whole entry): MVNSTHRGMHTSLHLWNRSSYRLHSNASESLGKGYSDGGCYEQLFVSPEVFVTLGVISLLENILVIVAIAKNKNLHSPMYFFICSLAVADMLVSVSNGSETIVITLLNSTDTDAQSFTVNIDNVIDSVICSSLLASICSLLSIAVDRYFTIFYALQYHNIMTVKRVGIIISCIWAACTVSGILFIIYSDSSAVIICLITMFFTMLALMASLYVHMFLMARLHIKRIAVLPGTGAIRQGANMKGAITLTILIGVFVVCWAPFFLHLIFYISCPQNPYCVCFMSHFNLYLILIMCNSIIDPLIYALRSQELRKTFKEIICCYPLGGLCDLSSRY

Albumin = Albumin (Bos taurus, UniProt P02769); experiment: Counterscreen for inhibitors of T-cell receptor (TCR)-CD3 interaction: Fluorescence-based biochemical high throughput dose response assay to identify inhibitors of T-cell receptor (TCR)-CD3 interaction using a TAMRA-labeled BSA probe.; format: functional
Chain of Albumin (P02769 whole entry): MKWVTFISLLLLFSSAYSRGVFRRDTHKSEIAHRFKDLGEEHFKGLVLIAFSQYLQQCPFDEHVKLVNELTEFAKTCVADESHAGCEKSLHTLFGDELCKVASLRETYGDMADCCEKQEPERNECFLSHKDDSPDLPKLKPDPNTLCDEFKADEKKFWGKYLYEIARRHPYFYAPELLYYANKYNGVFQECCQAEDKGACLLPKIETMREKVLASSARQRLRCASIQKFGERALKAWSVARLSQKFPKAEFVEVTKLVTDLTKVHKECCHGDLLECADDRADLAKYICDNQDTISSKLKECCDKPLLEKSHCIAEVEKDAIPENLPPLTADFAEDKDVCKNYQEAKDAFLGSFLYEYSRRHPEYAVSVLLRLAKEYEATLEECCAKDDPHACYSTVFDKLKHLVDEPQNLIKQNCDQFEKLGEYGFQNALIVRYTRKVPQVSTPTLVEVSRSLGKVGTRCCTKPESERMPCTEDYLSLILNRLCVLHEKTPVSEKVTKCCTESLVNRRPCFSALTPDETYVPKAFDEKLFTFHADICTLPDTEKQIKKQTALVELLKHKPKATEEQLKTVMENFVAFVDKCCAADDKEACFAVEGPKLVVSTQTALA

[3] = target: T1, RNA-editing ligase 1, mitochondrial (Trypanosoma brucei brucei, UniProt P86926); experiment: inhibition of trypanosome RNA editing ligase – biochemical, fluorescence, Trypanosoma brucei, dose response (AID 1117295); format: functional
T1 sequence (P86926 whole entry): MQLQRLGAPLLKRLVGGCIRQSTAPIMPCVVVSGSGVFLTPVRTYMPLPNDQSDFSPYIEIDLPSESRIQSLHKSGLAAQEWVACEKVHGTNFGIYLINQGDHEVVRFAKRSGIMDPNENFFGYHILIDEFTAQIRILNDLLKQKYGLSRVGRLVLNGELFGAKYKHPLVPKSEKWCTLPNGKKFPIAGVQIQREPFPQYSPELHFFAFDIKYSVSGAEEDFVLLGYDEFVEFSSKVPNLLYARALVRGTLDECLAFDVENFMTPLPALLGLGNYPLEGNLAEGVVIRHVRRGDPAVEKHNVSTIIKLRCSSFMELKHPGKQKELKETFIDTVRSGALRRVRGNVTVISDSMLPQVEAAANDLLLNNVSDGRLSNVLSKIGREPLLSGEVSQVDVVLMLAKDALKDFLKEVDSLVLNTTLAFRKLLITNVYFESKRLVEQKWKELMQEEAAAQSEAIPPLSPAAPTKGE

Hexokinase HKDC1 = target: T2, Hexokinase HKDC1 (Homo sapiens, UniProt Q2TB90); experiment: inhibition of HKDC1 glucose phosphorylation – biochemical, W721R variant, dose response (AID 504729); format: functional
T2 sequence (Q2TB90 whole entry): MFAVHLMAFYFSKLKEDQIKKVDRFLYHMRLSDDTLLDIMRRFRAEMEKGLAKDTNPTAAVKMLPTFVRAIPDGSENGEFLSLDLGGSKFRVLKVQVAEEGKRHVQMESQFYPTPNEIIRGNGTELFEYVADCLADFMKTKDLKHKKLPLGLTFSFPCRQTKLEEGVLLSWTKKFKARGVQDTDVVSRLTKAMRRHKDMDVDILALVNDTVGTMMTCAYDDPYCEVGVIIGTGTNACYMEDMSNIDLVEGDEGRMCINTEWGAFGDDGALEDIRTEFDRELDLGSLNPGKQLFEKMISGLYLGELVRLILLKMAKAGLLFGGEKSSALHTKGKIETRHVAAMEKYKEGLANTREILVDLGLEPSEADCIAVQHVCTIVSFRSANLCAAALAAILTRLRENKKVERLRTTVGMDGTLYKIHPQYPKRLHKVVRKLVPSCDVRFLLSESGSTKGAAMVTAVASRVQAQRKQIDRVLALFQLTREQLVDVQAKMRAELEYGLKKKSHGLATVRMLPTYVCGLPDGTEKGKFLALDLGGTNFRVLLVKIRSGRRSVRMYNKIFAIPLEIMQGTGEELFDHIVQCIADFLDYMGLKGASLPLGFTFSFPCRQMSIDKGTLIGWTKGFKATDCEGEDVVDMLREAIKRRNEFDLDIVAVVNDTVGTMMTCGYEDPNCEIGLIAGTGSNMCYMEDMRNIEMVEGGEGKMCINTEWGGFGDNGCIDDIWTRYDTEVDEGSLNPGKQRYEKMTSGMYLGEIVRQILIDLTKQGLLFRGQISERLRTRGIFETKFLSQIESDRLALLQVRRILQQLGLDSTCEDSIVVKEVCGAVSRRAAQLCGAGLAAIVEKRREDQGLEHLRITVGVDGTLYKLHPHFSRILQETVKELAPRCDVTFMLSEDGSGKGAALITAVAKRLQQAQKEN

INS1 = experiment: INS-1E survival protection against cytokine death – cell-based, luminescence, retest, dose response (AID 449756); format: functional; conditions: Rattus norvegicus;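 note: cell death triggered by IL-1 beta plus TNF-alpha plus IFN-gamma mixture; protective hits raise ATP signal compared with cytokine alone wells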
Caspase-6 = target: T3, Caspase-6 (Homo sapiens, UniProt P55212); experiment: inhibition of CASP6 peptide cleavage – biochemical, VEID-R110 fluorescence, cherry-pick, dose response (AID 720632)
T3 sequence (P55212 whole entry): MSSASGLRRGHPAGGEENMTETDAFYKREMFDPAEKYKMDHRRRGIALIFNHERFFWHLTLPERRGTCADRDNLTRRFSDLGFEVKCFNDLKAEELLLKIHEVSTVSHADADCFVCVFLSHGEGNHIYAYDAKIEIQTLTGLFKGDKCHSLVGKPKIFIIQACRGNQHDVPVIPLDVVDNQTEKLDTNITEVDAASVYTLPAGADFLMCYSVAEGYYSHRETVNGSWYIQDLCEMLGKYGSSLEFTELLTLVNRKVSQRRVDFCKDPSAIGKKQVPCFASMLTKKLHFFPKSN

[4] = target: T4, DNA repair and recombination protein RAD54-like (Homo sapiens, UniProt Q92698); experiment: RAD54 Holliday junction migration blockers – biochemical, fluorescence, cherry-picked samples, dose series, confirmation (AID 651657); format: functional
T4 sequence (Q92698 whole entry): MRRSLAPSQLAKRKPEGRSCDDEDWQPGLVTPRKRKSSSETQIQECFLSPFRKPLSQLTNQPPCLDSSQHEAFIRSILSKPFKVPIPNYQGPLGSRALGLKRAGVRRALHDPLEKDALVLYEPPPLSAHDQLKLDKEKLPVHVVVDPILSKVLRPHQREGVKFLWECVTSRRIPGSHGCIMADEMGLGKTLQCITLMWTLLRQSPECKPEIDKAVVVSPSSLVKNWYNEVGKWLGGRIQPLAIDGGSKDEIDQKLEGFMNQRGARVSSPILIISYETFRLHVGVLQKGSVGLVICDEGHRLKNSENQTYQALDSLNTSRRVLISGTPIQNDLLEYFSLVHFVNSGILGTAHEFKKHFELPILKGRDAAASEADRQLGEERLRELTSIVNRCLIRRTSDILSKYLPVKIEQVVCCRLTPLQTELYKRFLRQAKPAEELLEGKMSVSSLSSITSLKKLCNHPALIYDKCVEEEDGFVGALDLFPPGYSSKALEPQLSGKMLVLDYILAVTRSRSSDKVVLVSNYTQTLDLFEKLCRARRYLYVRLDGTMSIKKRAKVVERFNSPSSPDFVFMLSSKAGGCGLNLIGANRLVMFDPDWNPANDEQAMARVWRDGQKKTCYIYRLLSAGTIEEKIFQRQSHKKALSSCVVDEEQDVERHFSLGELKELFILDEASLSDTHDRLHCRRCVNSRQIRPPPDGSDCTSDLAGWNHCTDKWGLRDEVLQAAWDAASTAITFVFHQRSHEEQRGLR

CCN1/C(=C/c2ccc3cc(C)ccc3[n+]2CC)Sc2cc(C)c(C)cc21
EC50 [1]: 9.66 µM (inconclusive) | EC50 (BJ): 0.337 µM (inconclusive) | IC50 [2]: > 4.87 µM (active) | EC50 (Melanocortin receptor 4): > 3.3 µM (active)

Nc1ccc2nc3c(O)nc(S)nc3nc2c1
IC50 (Albumin): 25.6 µM (inactive) | IC50 [3]: 2.76 µM (active)

Cc1oc2c(c1C(=O)c1ccccc1)C(=O)C(=O)c1ccccc1-2
IC50 (Hexokinase HKDC1): 14.5 µM (active) | AC50 (INS1): 2.71 µM (active) | IC50 [3]: 10.3 µM (inactive)

CSc1ccc(C=NNc2ccc(S(=O)(=O)Nc3ccccc3C(=O)O)cc2[N+](=O)[O-])cc1
AC50 (Caspase-6): 6.66 µM (active)

O=C1C(Cl)=C(NCCN2CCCCC2)C(=O)c2ccccc21
AC50 (INS1): 4.41 µM (active)

O=C(O)COc1ccc(/C=N/NC(=O)c2ccc(-c3csc(Nc4ccc(Cl)cc4)n3)cc2)cc1
IC50 (Hexokinase HKDC1): 33 µM (inactive)

COc1cc(NCCCNC(C)C)c2nccc(C)c2c1
AC50 [4]: 49.6 µM (active) | AC50 (Caspase-6): 33.5 µM (active)
